Source: ChEMBL document CHEMBL5154936, “Scaffold Hopping Strategy to Identify Prostanoid EP4 Receptor Antagonists for Cancer Immunotherapy” (J Med Chem, 2022)
One block for each compound: values may come before it.

Assays:
[1] = biological target: Prostaglandin E2 receptor EP4 subtype (Homo sapiens, UniProt P35408); test: Antagonist activity at human EP4 receptor transfected in CHO/Galpha16 cells preincubated for 15 mins followed by PGE2 addition by calcium flux assay; format: functional, cell-based
[2] = Metabolic stability in human liver microsomes assessed as half life; format: ADME, Microsome
[3] = Metabolic stability in human liver microsomes assessed as intrinsic clearance; format: ADME, Microsome; settings: read-out: CLH
[4] = Metabolic stability in human liver microsomes assessed as parent compound remaining at 10 uM measured after 60 mins; format: ADME, Microsome; settings: read-out: Stability
[5] = biological target: Prostaglandin E2 receptor EP4 subtype (Mus musculus, UniProt P32240); test: Antagonist activity at mouse EP4 receptor transfected in CHO/Galpha16 cells preincubated for 15 mins followed by PGE2 addition by calcium flux assay; format: functional, cell-based
[6] = biological target: T1, Prostaglandin E2 receptor EP1 subtype (Homo sapiens, UniProt P34995); test: Antagonist activity at human EP1 receptor transfected in CHO/Galpha16 cells preincubated for 15 mins followed by PGE2 addition by calcium flux assay; format: functional, cell-based
T1 sequence (P34995 whole entry): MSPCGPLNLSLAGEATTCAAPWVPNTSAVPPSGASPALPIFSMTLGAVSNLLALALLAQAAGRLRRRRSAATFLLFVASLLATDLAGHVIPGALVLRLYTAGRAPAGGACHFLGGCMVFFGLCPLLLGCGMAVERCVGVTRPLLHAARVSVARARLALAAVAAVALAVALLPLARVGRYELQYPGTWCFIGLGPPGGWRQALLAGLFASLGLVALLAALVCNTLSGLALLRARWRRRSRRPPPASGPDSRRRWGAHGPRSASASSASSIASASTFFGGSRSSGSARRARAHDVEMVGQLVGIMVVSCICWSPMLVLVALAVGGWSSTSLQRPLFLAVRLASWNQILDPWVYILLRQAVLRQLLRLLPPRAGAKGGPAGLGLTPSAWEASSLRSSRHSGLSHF

[7] = biological target: Prostaglandin E2 receptor EP2 subtype (Homo sapiens, UniProt P43116); test: Antagonist activity at human EP2 receptor transfected in CHO/Galpha16 cells preincubated for 15 mins followed by PGE2 addition by calcium flux assay; format: functional, cell-based
[8] = biological target: T2, Prostaglandin E2 receptor EP3 subtype (Homo sapiens, UniProt P43115); test: Antagonist activity at human EP3 receptor transfected in CHO/Galpha16 cells preincubated for 15 mins followed by PGE2 addition by calcium flux assay; format: functional, cell-based
T2 sequence (P43115 whole entry): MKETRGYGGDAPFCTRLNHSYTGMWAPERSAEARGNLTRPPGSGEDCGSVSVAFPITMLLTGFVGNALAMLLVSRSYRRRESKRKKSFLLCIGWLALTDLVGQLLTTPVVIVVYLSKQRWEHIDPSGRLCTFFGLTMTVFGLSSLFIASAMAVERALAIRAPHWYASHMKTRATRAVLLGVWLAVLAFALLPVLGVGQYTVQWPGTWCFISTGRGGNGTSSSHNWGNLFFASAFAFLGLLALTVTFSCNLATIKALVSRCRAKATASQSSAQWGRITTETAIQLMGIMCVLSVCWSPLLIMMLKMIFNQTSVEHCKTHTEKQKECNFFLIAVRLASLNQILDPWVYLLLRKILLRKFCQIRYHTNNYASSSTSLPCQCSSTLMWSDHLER

[9] = Metabolic stability in mouse liver microsomes assessed as half life; format: ADME, Microsome
[10] = Metabolic stability in mouse liver microsomes assessed as parent compound remaining at 10 uM measured after 60 mins; format: ADME, Microsome; settings: read-out: Stability
[11] = Metabolic stability in mouse liver microsomes assessed as intrinsic clearance; format: ADME, Microsome; settings: read-out: CLH

Prostaglandin E2 receptor EP4 subtype (Mus musculus, UniProt P32240), sequence (P32240 whole entry): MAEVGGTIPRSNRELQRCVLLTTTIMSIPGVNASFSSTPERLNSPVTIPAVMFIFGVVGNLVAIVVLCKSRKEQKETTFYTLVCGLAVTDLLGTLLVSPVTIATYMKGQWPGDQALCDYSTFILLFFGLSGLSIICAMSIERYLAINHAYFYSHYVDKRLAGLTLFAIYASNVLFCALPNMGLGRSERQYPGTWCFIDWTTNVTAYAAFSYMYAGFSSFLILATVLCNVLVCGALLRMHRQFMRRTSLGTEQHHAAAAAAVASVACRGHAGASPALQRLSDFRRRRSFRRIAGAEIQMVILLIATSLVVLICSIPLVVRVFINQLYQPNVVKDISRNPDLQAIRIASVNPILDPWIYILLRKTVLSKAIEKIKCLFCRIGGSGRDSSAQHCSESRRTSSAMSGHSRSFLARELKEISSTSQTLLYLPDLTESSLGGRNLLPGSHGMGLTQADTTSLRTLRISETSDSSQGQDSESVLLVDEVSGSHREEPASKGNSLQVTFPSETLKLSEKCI
Prostaglandin E2 receptor EP2 subtype, sequence (P43116 whole entry): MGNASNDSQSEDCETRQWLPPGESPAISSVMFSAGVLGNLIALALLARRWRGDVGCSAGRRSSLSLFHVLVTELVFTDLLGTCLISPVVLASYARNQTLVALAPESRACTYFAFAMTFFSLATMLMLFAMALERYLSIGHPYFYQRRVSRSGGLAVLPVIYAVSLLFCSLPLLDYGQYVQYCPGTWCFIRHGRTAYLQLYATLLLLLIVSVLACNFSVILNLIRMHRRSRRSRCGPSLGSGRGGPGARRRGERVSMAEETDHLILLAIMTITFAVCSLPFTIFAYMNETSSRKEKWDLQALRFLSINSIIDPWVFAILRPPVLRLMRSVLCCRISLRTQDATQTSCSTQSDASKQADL
Prostaglandin E2 receptor EP4 subtype (Homo sapiens, UniProt P35408), sequence (P35408 whole entry): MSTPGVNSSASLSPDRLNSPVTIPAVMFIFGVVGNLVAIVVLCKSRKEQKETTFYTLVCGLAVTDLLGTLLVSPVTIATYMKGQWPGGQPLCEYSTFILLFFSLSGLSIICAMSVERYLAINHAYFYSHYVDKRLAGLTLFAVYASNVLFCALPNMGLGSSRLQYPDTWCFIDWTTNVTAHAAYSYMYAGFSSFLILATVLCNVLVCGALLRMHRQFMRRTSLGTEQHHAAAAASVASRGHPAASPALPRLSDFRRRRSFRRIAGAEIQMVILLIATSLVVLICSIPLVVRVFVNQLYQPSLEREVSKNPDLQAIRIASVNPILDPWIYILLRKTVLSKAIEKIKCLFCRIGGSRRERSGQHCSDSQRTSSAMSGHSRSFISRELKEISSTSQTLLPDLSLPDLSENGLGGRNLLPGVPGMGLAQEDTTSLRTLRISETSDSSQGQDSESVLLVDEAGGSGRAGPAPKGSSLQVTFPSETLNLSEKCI

SMILES: CCC1CCc2c(sc(CCc3ccc(F)cc3)c2C(=O)N[C@@H](C)c2ccc(C(=O)O)cc2)C1 (stereo partly drawn)
- IC50 [1]: 0.648 µM

SMILES: C[C@H](NC(=O)c1c(CCc2ccc(F)cc2)sc2c1CCCC2)c1ccc(C(=O)O)cc1
- half-life [2]: 14 min
- microsomal CLint [3]: 97.6 µL/min/mg
- IC50 [1]: 0.0278 µM
- remaining at 1 h, 10 µM [4]: 5%
- IC50 [5]: 0.029 µM

SMILES: COc1ccc(Cc2sc3c(c2C(=O)N[C@@H](C)c2ccc(C(=O)O)cc2)CCOC3)cc1F
- IC50 [6]: > 10 µM
- IC50 [7]: > 10 µM
- IC50 [8]: > 10 µM

SMILES: C[C@H](NC(=O)c1c(CCc2ccc(F)cc2)sc2c1CCC2)c1ccc(C(=O)O)cc1
- half-life [9]: 16.1 min
- half-life [2]: 6.3 min
- microsomal CLint [3]: 221 µL/min/mg
- IC50 [6]: > 10 µM
- remaining at 1 h, 10 µM [10]: 6.8%
- remaining at 1 h, 10 µM [4]: 12.2%
- microsomal CLint [11]: 86.1 µL/min/mg
- IC50 [7]: > 10 µM
- IC50 [8]: > 10 µM
- IC50 [5]: 0.0198 µM

SMILES: O=C(O)c1cccc(CNC(=O)c2c(Cc3cccc(C(F)(F)F)c3)sc3c2CCOC3)c1
- IC50 [1]: > 1 µM

SMILES: C[C@H](NC(=O)c1c(Cc2ccc(F)cc2)sc2c1CCOC2)c1ccc(C(=O)NN)cc1
- IC50 [1]: 0.0749 µM

SMILES: COc1ccc2cc(C#Cc3sc4c(c3C(=O)N[C@@H](C)c3ccc(C(=O)O)cc3)CCOC4)ccc2c1
- IC50 [1]: 0.0272 µM

SMILES: COc1cccc(Cc2sc3c(c2C(=O)N[C@@H](C)c2ccc(C(=O)O)cc2)CCOC3)c1
- IC50 [1]: 0.0019 µM

SMILES: O=C(NCC1CCC(C(=O)O)CC1)c1c(Cc2ccc(F)cc2)sc2c1CCOC2 (stereo not drawn)
- IC50 [1]: 0.0303 µM

SMILES: C[C@H](NC(=O)c1c(CCc2ccc(F)cc2)sc2c1CCN(C(=O)OC(C)(C)C)C2)c1ccc(C(=O)O)cc1
- IC50 [1]: 0.315 µM

Further lines, results first:

- IC50 [1]: > 1 µM
SMILES: C[C@H](NC(=O)c1c(/N=C/c2cccc(C(F)(F)F)c2)sc2c1CCOC2)c1ccc(C(=O)O)cc1

- IC50 [1]: 0.0066 µM
SMILES: C[C@H](NC(=O)c1c(Cc2ccc(OC(F)(F)F)c(Cl)c2)sc2c1CCOC2)c1ccc(C(=O)O)cc1

- IC50 [1]: > 1 µM
SMILES: C[C@H](NC(=O)c1c(NC(=O)c2ccc(F)cc2)sc2c1CCOC2)c1ccc(C(=O)O)cc1

- IC50 [6]: > 10 µM
- IC50 [1]: 0.0329 µM
- IC50 [7]: > 10 µM
- IC50 [8]: > 10 µM
- IC50 [5]: 0.0667 µM
SMILES: C[C@H](NC(=O)c1c(NCc2ccc(C(F)(F)F)cc2)sc2c1CCOC2)c1ccc(C(=O)O)cc1
